Measurements: paper PMC3667592 (Journal of medicinal chemistry, 2013)
Marks after values point to notes of the source that are not given here.

How the values were obtained:
[1] = Ligand binding, UV-difference titration; conditions: binding to N,N′-Ac2-L-Lys-D-Ala-D-Ala (3)
[2] = binding to N,N′-Ac2-L-Lys-D-Ala-D-Ala (3), ref 8a; cited from earlier work
[3] = reprogrammed precursor terminus D-Ala-D-Lac; cited from earlier work
VanA and VanB VRE = conditions: cited from earlier work

Row | SMILES | Association constant for 3, Ka [1] | Association constant for 3, Ka (value in parentheses) [2] | Fold decrease in antibiotic binding affinity (D-Ala-D-Lac vs D-Ala-D-Ala) [3] [fold] | Fold drop in antimicrobial activity against resistant strains (VanA and VanB VRE) [fold]
1 | CN[C@H](CC(C)C)C(=O)N[C@H]1C(=O)N[C@@H](CC(N)=O)C(=O)N[C@H]2C(=O)N[C@H]3C(=O)N[C@H](C(=O)N[C@H](C(=O)O)c4cc(O)cc(O)c4-c4cc3ccc4O)[C@H](O)c3ccc(c(Cl)c3)Oc3cc2cc(c3O)Oc2ccc(cc2Cl)[C@H]1O [Vancomycin Aglycon (2), Vancomycin Aglycon] | 1.4 M^−1 (× 10^5) |  |  | 
2 | CN[C@H](CC(C)C)C(=O)N[C@H]1C(=O)N[C@@H](CC(N)=O)C(=O)N[C@H]2C(=O)N[C@H]3C(=O)N[C@H](C(=O)N[C@H](C(=O)O)c4cc(O)cc(O)c4-c4cc3ccc4O)[C@H](O)c3ccc(c(Cl)c3)Oc3cc2cc(c3O[C@@H]2O[C@H](CO)[C@@H](O)[C@H](O)[C@H]2O[C@H]2C[C@](C)(N)[C@H](O)[C@H](C)O2)Oc2ccc(cc2Cl)[C@H]1O [Vancomycin (1), Vancomycin] | 1.8 M^−1 (× 10^5) | 2.3–3.9 M^−1 (× 10^5) | 1000 | 1000
